The conditions of series [1]: Crystal; DTA.
A short description of series [2]: Molar enthalpy of transition or fusion. The conditions noted are these: Crystal; DSC.

± gives the expanded uncertainty stated by the source.

For the molecule `CCCCC[n+]1csc2ccccc21.F[P-](F)(F)(F)(F)F` [N-pentylbenzothiazolium hexafluorophosphate], the Normal melting temperature in series [1] was determined as 139.11 ± 0.5 °C. Further, the “Molar enthalpy of transition or fusion” value in series [2] worked out at 7.22 ± 0.215 kcal/mol.
The matching figures for `CCCCCCC[n+]1csc2ccccc21.F[P-](F)(F)(F)(F)F` [3-heptylbenzo[d]thiazol-3-ium hexafluorophosphate]: 86.2 ± 0.5 °C and 4.8 ± 0.167 kcal/mol.
Consider `CCCCCCCC[n+]1csc2ccccc21.F[P-](F)(F)(F)(F)F` [N-octylbenzothiazolium hexafluorophosphate], for which, in series [1], the Normal melting temperature was 61.07 ± 0.5 °C. In series [2], the “Molar enthalpy of transition or fusion” value amounted to 3.59 ± 0.12 kcal/mol.
The matching figures for `CCCCCC[n+]1csc2ccccc21.F[P-](F)(F)(F)(F)F` [N-hexylbenzothiazolium hexafluorophosphate]: 85.64 ± 0.5 °C and 5.62 ± 0.167 kcal/mol.

The record behind these values is the NIST ThermoML archive (doi:10.1021/je500762n).
